Experiments:
[1] = system: Erysiphe graminis f. sp. tritici; experiment: Test A: wheat powdery mildew, preventive spray on wheat seedlings, disease rating; format: in vivo, Erysiphe graminis f. sp. tritici (on wheat seedlings); details: 200 ppm test suspension sprayed to run-off (equivalent to 500 g/ha) on wheat seedlings; 100 = 100% disease control, 0 = no control; # = significant activity
Description: (§1) Test compounds were first dissolved in acetone in an amount equal to 3% of the final volume and then suspended at a concentration of 200 ppm in purified water containing 250 ppm of the surfactant Trem® 014 (polyhydric alcohol esters). The resulting test suspensions were then used in the following test. Spraying these 200 ppm test suspensions to the point of run-off on the test plants is the equivalent of a rate of 500 g/ha.
The test suspension was sprayed to the point of run-off on wheat seedlings. The following day the seedlings were inoculated with a spore dust of Erysiphe graminis f. sp. tritici, (the causal agent of wheat powdery mildew) and incubated in a growth chamber at 20° C. for 7 days, after which disease ratings were made.
(§2) Results for Tests A-E are given in Table A. In the table, a rating of 100 indicates 100% disease control and a rating of 0 indicates no disease control (relative to the controls). A dash (-) indicates no test results. ND indicates disease control not determined due to phytotoxicity. # indicates significant activity.

Puccinia recondita = experiment: Test B: wheat leaf rust, preventive spray on wheat seedlings, disease rating; format: in vivo, Puccinia recondita (on wheat seedlings); details: 200 ppm test suspension sprayed to run-off (equivalent to 500 g/ha) on wheat seedlings; 100 = 100% disease control, 0 = no control; # = significant activity
Description: as §1
(§3) The test suspension was sprayed to the point of run-off on wheat seedlings. The following day the seedlings were inoculated with a spore suspension of Puccinia recondita (the causal agent of wheat leaf rust) and incubated in a saturated atmosphere at 20° C. for 24 h, and then moved to a growth chamber at 20° C. for 6 days, after which disease ratings were made.
as §2

Pyricularia oryzae = format: in vivo, Pyricularia oryzae (on rice seedlings); details: 200 ppm test suspension sprayed to run-off (equivalent to 500 g/ha) on rice seedlings; 100 = 100% disease control, 0 = no control; # = significant activity
Phytophthora infestans = format: in vivo, Phytophthora infestans (on tomato seedlings); details: 200 ppm test suspension sprayed to run-off (equivalent to 500 g/ha) on tomato seedlings; 100 = 100% disease control, 0 = no control; # = significant activity
Botrytis cinerea = experiment: Test E: gray mold, preventive spray on cucumber seedlings, disease rating; format: in vivo, Botrytis cinerea (on cucumber seedlings); details: 200 ppm test suspension sprayed to run-off (equivalent to 500 g/ha) on cucumber seedlings; 100 = 100% disease control, 0 = no control; # = significant activity
Description: as §1
as §3, with “cucumber” for “wheat”, “Botrytis cinerea” for “Puccinia recondita”, “gray mold on many crops)” for “wheat leaf rust)”, “48” for “24”, “and” for “and then”, “5” for “6”
as §2

Structure (SMILES)	Test A disease control rating (wheat powdery mildew) [1]	Test B disease control rating (wheat leaf rust) (Puccinia recondita)	Test C disease control rating (rice blast) (Pyricularia oryzae)	Test D disease control rating (potato and tomato late blight) (Phytophthora infestans)	Test E disease control rating (gray mold) (Botrytis cinerea)
CC(COc1cc(F)ccc1C#N)NC(=O)C1(C)CC(C)(Cl)C1 (stereo not shown) [compound 43]	0 (a rating of 0 indicates no disease control (relative to the controls))	0 (a rating of 0 indicates no disease control (relative to the controls))	0 (a rating of 0 indicates no disease control (relative to the controls))	20%	19%
CC(NC(=O)C1(C)CC(C)(Br)C1)c1ccc(Cl)cc1Cl (stereo not shown) [compound 69]	0 (a rating of 0 indicates no disease control (relative to the controls))	0 (a rating of 0 indicates no disease control (relative to the controls))	100# (a rating of 100 indicates 100% disease control)	24%	0 (a rating of 0 indicates no disease control (relative to the controls))
CC(NC(=O)C1CC(C)(Cl)C1)C(Oc1cc(F)ccc1C#N)c1ccccc1 (stereo not shown) [compound 33]	0 (a rating of 0 indicates no disease control (relative to the controls))	0 (a rating of 0 indicates no disease control (relative to the controls))	52%	0 (a rating of 0 indicates no disease control (relative to the controls))	0 (a rating of 0 indicates no disease control (relative to the controls))
CC(COc1cc(F)ccc1F)NC(=O)C1(C)CC(C)(Cl)C1 (stereo not shown) [compound 29]	0 (a rating of 0 indicates no disease control (relative to the controls))	86# %	100# (a rating of 100 indicates 100% disease control)	0 (a rating of 0 indicates no disease control (relative to the controls))	0 (a rating of 0 indicates no disease control (relative to the controls))
CC(NC(=O)C1(C(F)(F)F)CC(C)(Cl)C1)c1ccc(Cl)cc1Cl (stereo not shown) [compound 8]	0 (a rating of 0 indicates no disease control (relative to the controls))	0 (a rating of 0 indicates no disease control (relative to the controls))	100# (a rating of 100 indicates 100% disease control)	24%	0 (a rating of 0 indicates no disease control (relative to the controls))
CC(COc1cc(F)ccc1F)NC(=O)C1(C(F)(F)F)CC(C)(Cl)C1 (stereo not shown) [compound 28]	53%	0 (a rating of 0 indicates no disease control (relative to the controls))	100# (a rating of 100 indicates 100% disease control)	0 (a rating of 0 indicates no disease control (relative to the controls))	0 (a rating of 0 indicates no disease control (relative to the controls))
CC(NC(=O)C1(C)CC(C)(Cl)C1)c1cccc2ccccc12 (stereo not shown) [compound 22]	0 (a rating of 0 indicates no disease control (relative to the controls))	0 (a rating of 0 indicates no disease control (relative to the controls))	0 (a rating of 0 indicates no disease control (relative to the controls))	0 (a rating of 0 indicates no disease control (relative to the controls))	0 (a rating of 0 indicates no disease control (relative to the controls))
CC(NC(=O)C1(C)CC(C)(Br)C1)c1ccc(Cl)cc1Cl (stereo not shown) [compound 68]	0 (a rating of 0 indicates no disease control (relative to the controls))	0 (a rating of 0 indicates no disease control (relative to the controls))	97# %	24%	0 (a rating of 0 indicates no disease control (relative to the controls))
CC(NC(=O)C1(C)CC(C)(Cl)C1)c1ccc(Br)cc1 (stereo not shown) [compound 13]	0 (a rating of 0 indicates no disease control (relative to the controls))	0 (a rating of 0 indicates no disease control (relative to the controls))	94# %	0 (a rating of 0 indicates no disease control (relative to the controls))	0 (a rating of 0 indicates no disease control (relative to the controls))
CC(NC(=O)C1CC(C)(Cl)C1)c1ccc(Br)cc1 (stereo not shown) [compound 10]	74%	0 (a rating of 0 indicates no disease control (relative to the controls))	53%	42%	0 (a rating of 0 indicates no disease control (relative to the controls))
CC(NC(=O)C1(C)CC(C)(Cl)C1)c1ccc2ccccc2c1 (stereo not shown) [compound 24]	0 (a rating of 0 indicates no disease control (relative to the controls))	0 (a rating of 0 indicates no disease control (relative to the controls))	100# (a rating of 100 indicates 100% disease control)	0 (a rating of 0 indicates no disease control (relative to the controls))	0 (a rating of 0 indicates no disease control (relative to the controls))
CC(NC(=O)C1(C)CC(Cl)(CCl)C1)c1ccc(Br)cc1 (stereo not shown) [compound 62]	0 (a rating of 0 indicates no disease control (relative to the controls))	0 (a rating of 0 indicates no disease control (relative to the controls))	97# %	84# %	0 (a rating of 0 indicates no disease control (relative to the controls))
CC(NC(=O)C1(C)CC(F)(F)C1)c1ccc(Br)cc1 (stereo not shown) [compound 67]	63%	0 (a rating of 0 indicates no disease control (relative to the controls))	99# %	43%	19%
CC(COc1ccc(Cl)cc1C#N)NC(=O)C1(C)CC(C)(Cl)C1 (stereo not shown) [compound 42]	63%	0 (a rating of 0 indicates no disease control (relative to the controls))	0 (a rating of 0 indicates no disease control (relative to the controls))	43%	19%

From patent US6504058B1 (priority 1997, dated 2003)
